Experiments:
[1] = molecular target: T1, CD11b and CD14 (Homo sapiens, UniProt P08571); test: FRET flow cytometry: co-assembly of CD11b and CD14 on monocytes; assay type: cell-based; settings: for co-assembly of CD11b and CD14 (energy transfer between monoclonal antibodies): human monocytes in whole blood, stimulation with the substance alone, 37° C. 15 minutes
T1 construct: endogenous in cells; host or cells: human monocytes in heparinised whole blood (healthy donors and patients)
T1 sequence (P08571 20-345 limits assumed): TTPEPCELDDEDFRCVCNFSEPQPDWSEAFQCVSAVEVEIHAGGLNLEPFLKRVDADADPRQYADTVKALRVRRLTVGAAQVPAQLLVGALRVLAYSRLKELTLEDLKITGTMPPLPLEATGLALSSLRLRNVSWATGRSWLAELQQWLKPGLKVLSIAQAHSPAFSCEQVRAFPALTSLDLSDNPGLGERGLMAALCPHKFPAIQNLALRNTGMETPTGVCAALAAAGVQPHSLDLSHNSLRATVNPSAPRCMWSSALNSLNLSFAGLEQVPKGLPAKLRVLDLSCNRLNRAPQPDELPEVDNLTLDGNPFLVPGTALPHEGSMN
Description: (§1) Aliquots […] of whole blood were incubated with the following stimulatory compounds at 37° C. for 15 minutes: LPS of Salmonella minnesota (0.1-10 nM, Mw 10 kDa), ceramide (primarily stearic acid and nervonic acid) and sulfogalactosyl ceramide (SG-cer, […]), both of which tested LPS free in the LAL assay (Cer, 1 nM-5.5 mM), lysophosphatidyl choline (lyso-PC, 10 mM), phorbol-12-myristate-13-acetate (PMA, 1 mM), N-formyl-L-methionyl-L-leucyl-L-phenyl alamine (fMLP, 1 mM), PE, PC, PI and PS liposomes (10 mm) which had been prepared as described above. All reagents were obtained from Sigma. In addition, the cells were stimulated with HPS70 (7 nM), dHSP70 (7 nM) and SG-cer+dHSP70 (40 nM+7 nM). After incubation, the cells were washed with cold PBS containing 0.1% of NaN3. The synthetic LPS antagonist lipid IVa (“compound-406”, 1-400 ng/ml) and lipid A derived from E. coli (1-100 ng/ml) were made available by courtesy of Dr. S. Kusumoto. The cells were pre-incubated with the LPS antagonist at 37° C. for 15 minutes and then stimulated with LPS at the same temperature (without washing).
Whole blood cells which had been stimulated or washed ex vivo […] were incubated on ice for 15 minutes with saturation concentrations of monoclonal fluorochrom-conjugated or biotinylated antibodies. The monoclonal antibodies CD11a (clone 25.3.1), CD16a (clone 3G8). CD18 (clone 7E4), CD14 (clone RMO52), CD33 (clone My9-RD1). CD81 (clone Js64) were obtained as R-phyco-erythrine (R-PE) conjugates and CD25 (clone B1.49.9) in biotinylated form from Coulter/Immunotech (Krefeld, Germany). CD11b (clone d12), CD11c (clone S-HCL-3), CD36 (clone CB38), CD47 (clone B6H12), CD81 (clone JS-81) and (Cd55 (clone IA10) in biotinylated form and Streptavidin-R-PE were purchased from Becton/Dickinson/Pharningen (Heidelberg, Germany) CD18 (clone IB4) in biontinylated form and CD40 (clone EA-5) as R-PE conjugate were obtained from Alexis (Grünberg, Germany) and CD14 (clones ×8 and Uchml) and CD3 (clone Cris-7) in biotinylated form and Streptavidin-Cy5 (Sa-Cy5) from Dianova (Hamburg, Germany), CD32 (clone C1KM5) and CD64 (clone 10.1) were obtained as R-PE conjugates from Caltag (Burlingame, U.S.A.) and CD91 (clone 8G1) in biotinylated form from Proen (Heidelberg, Germany). A monoclonal anti-TLRA antibody (clone HTA125) was kindly provided by Dr. Kensuke. Since no energy transfer between the antibodies directed against the CD14/CD11a and CD14/CD11c pairs was detectable either on resting or on stimulated cells, these antibody combinations were not characterised further.
Lysis of erythrocytes and washing were carried out as described (Rothe et al., Thromb. Vasc. Biol. 16 (1996), 1437-1447). After the last washing step, the samples were divided and part of each sample incubated with a saturating amount of SA-Cy5 on ice for 15 minutes and washed before measuring.
For energy transfer experiments, […] aliquots of whole blood were treated with cholesterol/methyl cyclodextrine (C/C) (100 mg/ml/4.6 mg/ml) or 2-hydroxypropyl-β-cyclodextrine (0.15 mg/ml) at 37° C. for 30 minutes and then stimulated further with LPS (4 nM) or ceramide (40 nM) as described above. The energy transfer between CD14 and CD11b was measured.
A “FACSCalibur” flow cytometer (Becton Dickinson) equipped with an air-cooled 15 mW argon laser (excitation wavelength 488 nm), a diode laser (excitation wavelength […]) and standard filters [channel 1 (FITC): 530/30 nm band pass filter; channel 2 (R-PE being used as donor dye); 585/47 nm band pass filter; channel 3 (PerCP): pass having a length of >670 nm; and channel 4 (Cy5being used as recipient dye): 661/16 nm bad pass filter] was used. The Cellquest software (Becton Dickinson) was used for the measurements. […] Measurement was conducted without compensation. 50,000 leukocytes were required in the “list” modus, forward scattering (FSC) being used as a trigger signal. […]

[2] = molecular target: T2, receptor cluster comprising CD14 (Homo sapiens, UniProt P08571); test: FRET with a series of antibody pairs: receptor cluster comprising CD14 on monocytes; assay type: cell-based; settings: stimulation of the cells as control
T2 construct: endogenous in cells; host or cells: human monocytes in whole blood
T2 sequence (P08571 20-345 limits assumed): T1 sequence (P08571 20-345 limits assumed)
Description: as §1
Whole blood cells which had been stimulated or washed ex vivo […] were incubated on ice for 15 minutes with saturation concentrations of monoclonal fluorochrom-conjugated or biotinylated antibodies. The monoclonal antibodies CD11a (clone 25.3.1), CD16a (clone 3G8). […]

[3] = molecular target: T3, human CD14 (Homo sapiens, UniProt P08571); test: Binding of [14C]N-palmitoyl-D-sphingosine to CHO cells transfected with human CD14
T3 construct: expressed in transfected cells; host or cells: CHO cells (control: pPol-DHFR vector)
T3 sequence (P08571 20-345): T1 sequence (P08571 20-345 limits assumed)
Description: d. CHO cells transfected with human CD14 (-unlabelled ceramide)(●)+unlabelled ceramide (∘)) or with a pPol-DHFR vector (-unlabelled ceramide (▪)+unlabelled ceramide (□)) were incubated with the specified concentrations of [^14C]N-palmitoyl-D-sphingosine and the ^14C bound to the cells determined. Each data point represents the mean value ± SD of three measurements.
Cells transfected with human CD14 or the pPol-DHFR vector were grown as described recently (Stelter et al., Eur. J. Biochem. 238 (1996), 457-464). The cells were trypsinated, washed twice with PBS and then taken up in PBS containing 10% of human serum. CHO cells (4×10^5) were pre-incubated on ice in the presence of a 50 fold excess of unlabelled N-palmitoyl-D-sphingosine (Sigma) for 15 minutes in a final volume of […]. After that [^14C]N-palmitoyl-D-sphingosine (American Radiolabeled Chemicals Inc., St. Louis, Mo., U.S.A.) was added and the cells incubated for another 15 minutes. In order to remove non-bound activity, the cells were washed twice and then transferred to a fresh Eppendorf vessel. After repeated washing, the pellet was dissolved in […] of 1% SDS, 10 mM EDTA and then added to 3 ml of scintillation liquid. The amount of cell-bound radioactivity was determined by measuring the scintillation of the liquid.

| SMILES | co-assembly of CD11b and CD14 (energy transfer between monoclonal antibodies) [1] | energy transfer between any of the antibody pairs [2] | inhibition of binding by 50-fold excess of unlabelled ligand ([3]; CD14-transfected CHO fibroblasts) | binding to CD14-transfected CHO fibroblasts compared to vector-transfected cells ([3]; cell-bound 14C, PBS with 10% human serum, on ice 15 minutes) | effect on LPS-induced co-association between CD14 and CD11b ([1]; antagonist given in vitro 15 minutes before stimulation, LPS 4 nM + c-406 400 ng/ml) | effect on ceramide-induced co-association between CD14 and CD11b ([1]; antagonist given in vitro 15 minutes before stimulation, ceramide 10 nM + c-406 100 ng/ml) |
| --- | --- | --- | --- | --- | --- | --- |
| CCCCCCCCCCCCCC(=O)O[C@@H]1[C@@H](C)[C@@]2(O)[C@@H](C=C(CO)C[C@]3(O)C(=O)C(C)=C[C@@H]23)[C@@H]2C(C)(C)[C@]12OC(C)=O [PMA, phorbol-12-myristate-13-acetate] | neither fMLP or PMA showed any effect | did not result in any significant energy transfer |  |  |  |  |
| CCCCCCCCCCCCC/C=C/[C@@H](O)[C@H](CO)N[14C](=O)CCCCCCCCCCCCCCC [[^14C]-N-palnitoyl-D-sphingosine, [^14C]N-palmitoyl-D-sphingosine] |  |  | could be inhibited by adding a 50-fold excess of unlabelled ligand | much higher when compared to vector-transfected cells |  |  |
| CCCCCCCCCCC[C@@H](O)CC(=O)N[C@H]1[C@H](OC[C@H]2O[C@H](OP(=O)(O)O)[C@H](NC(=O)C[C@H](O)CCCCCCCCCCC)[C@@H](OC(=O)C[C@H](O)CCCCCCCCCCC)[C@@H]2O)O[C@H](CO)[C@@H](OP(=O)(O)O)[C@@H]1OC(=O)C[C@H](O)CCCCCCCCCCC [compound-406] | did not induce co-assembly of the receptors CD14 and CD11b |  |  |  | reduced the LPS- or ceramide-induced co-association between CD14 and CD11b significantly | reduced the LPS- or ceramide-induced co-association between CD14 and CD11b significantly |
